Assay [1] has as its target T1, Glycine--tRNA ligase (Homo sapiens, UniProt P41250).
T1 sequence (P41250 whole entry): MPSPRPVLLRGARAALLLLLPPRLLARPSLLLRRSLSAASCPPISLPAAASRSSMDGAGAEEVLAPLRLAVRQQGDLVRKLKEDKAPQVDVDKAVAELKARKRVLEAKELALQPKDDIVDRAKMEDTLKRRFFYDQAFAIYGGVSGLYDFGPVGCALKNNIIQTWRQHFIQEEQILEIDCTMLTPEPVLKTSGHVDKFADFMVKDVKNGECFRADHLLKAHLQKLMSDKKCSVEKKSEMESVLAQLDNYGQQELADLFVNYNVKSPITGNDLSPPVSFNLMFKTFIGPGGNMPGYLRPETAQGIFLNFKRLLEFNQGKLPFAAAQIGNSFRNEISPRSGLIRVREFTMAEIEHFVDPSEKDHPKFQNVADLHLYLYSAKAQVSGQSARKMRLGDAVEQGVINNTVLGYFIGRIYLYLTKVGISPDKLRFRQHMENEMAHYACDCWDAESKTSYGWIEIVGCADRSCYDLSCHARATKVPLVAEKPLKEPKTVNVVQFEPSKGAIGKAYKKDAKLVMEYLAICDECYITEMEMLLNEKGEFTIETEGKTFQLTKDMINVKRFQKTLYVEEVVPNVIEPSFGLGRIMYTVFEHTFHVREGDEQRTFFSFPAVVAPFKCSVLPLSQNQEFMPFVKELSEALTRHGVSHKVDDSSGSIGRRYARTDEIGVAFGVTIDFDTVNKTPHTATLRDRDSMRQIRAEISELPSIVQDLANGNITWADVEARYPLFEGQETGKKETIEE

Assay [2] deals with T2, Mitogen-activated protein kinase kinase kinase kinase 2 (Homo sapiens, UniProt Q12851).
T2 sequence (Q12851 whole entry): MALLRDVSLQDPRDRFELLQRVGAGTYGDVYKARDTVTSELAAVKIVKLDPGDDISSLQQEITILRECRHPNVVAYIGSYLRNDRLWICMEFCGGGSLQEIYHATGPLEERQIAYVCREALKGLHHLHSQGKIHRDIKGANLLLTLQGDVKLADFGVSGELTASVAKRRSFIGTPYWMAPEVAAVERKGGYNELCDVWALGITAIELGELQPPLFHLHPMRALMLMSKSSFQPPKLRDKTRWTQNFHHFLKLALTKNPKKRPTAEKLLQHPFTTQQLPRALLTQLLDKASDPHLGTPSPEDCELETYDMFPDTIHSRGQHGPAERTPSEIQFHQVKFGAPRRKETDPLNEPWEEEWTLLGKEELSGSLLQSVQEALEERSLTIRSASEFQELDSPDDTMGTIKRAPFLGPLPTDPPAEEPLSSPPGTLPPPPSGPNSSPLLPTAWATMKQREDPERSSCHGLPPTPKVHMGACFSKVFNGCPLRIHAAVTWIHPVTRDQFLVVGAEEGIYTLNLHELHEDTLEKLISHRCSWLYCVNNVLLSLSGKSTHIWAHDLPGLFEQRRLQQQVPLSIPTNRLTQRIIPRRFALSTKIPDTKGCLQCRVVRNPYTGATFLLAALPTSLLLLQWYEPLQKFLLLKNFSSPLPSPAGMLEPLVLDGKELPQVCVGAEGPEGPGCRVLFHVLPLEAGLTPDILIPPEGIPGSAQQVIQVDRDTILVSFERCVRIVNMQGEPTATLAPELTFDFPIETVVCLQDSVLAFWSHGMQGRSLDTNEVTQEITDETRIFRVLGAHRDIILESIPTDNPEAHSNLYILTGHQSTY

Assay [3] concerns the target STE20-like serine/threonine-protein kinase (Homo sapiens, UniProt Q9H2G2).
Assay [4] has as its target Adenylate kinase 2, mitochondrial (Homo sapiens, UniProt P54819).
Assay [5] addresses T3, TGF-beta receptor type-1 (Homo sapiens, UniProt P36897).
T3 sequence (P36897 whole entry): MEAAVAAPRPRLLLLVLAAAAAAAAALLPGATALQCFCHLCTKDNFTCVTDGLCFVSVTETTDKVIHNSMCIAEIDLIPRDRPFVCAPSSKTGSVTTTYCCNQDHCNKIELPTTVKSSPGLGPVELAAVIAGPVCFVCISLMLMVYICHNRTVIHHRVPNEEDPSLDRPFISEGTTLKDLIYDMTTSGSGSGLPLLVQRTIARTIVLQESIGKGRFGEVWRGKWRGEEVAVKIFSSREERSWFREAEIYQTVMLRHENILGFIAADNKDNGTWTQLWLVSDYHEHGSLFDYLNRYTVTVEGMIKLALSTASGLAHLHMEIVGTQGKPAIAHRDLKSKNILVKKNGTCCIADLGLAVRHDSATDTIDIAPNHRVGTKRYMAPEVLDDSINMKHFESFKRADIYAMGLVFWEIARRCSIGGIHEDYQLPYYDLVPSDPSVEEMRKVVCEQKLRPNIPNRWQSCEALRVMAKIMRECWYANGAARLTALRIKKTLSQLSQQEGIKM

Assay [6] concerns the target T4, Interleukin-1 receptor-associated kinase 4 (Homo sapiens, UniProt Q9NWZ3).
T4 sequence (Q9NWZ3 whole entry): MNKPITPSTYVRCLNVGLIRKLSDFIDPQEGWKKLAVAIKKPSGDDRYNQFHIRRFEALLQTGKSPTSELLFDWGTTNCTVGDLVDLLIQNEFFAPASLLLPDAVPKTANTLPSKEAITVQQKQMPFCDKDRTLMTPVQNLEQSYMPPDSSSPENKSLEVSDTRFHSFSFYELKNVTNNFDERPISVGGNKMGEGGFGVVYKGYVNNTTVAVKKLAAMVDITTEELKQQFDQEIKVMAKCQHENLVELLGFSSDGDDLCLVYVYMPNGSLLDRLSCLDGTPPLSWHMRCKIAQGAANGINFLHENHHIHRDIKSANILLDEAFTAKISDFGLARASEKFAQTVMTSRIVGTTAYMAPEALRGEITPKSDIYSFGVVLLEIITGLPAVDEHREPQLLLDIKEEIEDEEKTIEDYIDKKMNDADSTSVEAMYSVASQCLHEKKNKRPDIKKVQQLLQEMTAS

Assay [7] deals with Bone morphogenetic protein receptor type-1A (Homo sapiens, UniProt P36894).

Calls of active or inactive are those of the source. Where only a bound is given, the exact number is not on record here.

For orientation: Kd means the free concentration of one partner at which half of the binding sites on the other are occupied at equilibrium, for simple one-to-one binding.
Note: in the data inactive means no Kd found up to 30 µM.

STE20-like serine/threonine-protein kinase, sequence (Q9H2G2 whole entry): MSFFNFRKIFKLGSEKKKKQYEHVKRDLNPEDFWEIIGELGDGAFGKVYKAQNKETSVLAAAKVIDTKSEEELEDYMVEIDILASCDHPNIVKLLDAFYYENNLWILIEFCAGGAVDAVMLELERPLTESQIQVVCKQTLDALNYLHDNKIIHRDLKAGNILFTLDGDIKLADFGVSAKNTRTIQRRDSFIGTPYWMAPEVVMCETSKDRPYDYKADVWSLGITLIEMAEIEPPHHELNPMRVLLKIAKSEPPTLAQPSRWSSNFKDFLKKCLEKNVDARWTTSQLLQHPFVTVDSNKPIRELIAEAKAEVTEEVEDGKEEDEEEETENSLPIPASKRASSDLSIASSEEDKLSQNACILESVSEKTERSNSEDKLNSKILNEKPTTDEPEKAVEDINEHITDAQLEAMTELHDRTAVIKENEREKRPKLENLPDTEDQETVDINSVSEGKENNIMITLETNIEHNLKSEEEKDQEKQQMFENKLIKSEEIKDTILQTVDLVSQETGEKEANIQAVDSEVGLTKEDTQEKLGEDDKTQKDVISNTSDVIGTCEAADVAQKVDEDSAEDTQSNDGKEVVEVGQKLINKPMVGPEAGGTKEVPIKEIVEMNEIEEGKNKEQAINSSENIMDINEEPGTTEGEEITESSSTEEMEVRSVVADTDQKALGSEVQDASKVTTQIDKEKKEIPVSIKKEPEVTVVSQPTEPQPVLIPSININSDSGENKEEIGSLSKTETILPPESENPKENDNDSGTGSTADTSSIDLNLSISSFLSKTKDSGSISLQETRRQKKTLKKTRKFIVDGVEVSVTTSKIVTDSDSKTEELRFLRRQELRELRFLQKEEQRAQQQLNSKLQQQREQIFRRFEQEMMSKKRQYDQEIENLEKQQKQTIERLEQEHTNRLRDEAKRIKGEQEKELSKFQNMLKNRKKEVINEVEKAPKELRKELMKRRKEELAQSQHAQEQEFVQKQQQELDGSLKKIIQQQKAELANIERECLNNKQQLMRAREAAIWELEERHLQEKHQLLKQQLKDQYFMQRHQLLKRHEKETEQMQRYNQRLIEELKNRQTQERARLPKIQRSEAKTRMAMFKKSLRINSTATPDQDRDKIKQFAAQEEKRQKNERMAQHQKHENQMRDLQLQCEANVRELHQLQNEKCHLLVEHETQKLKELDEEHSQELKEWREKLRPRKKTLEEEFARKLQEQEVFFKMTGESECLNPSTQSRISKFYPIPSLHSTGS
Bone morphogenetic protein receptor type-1A, sequence (P36894 whole entry): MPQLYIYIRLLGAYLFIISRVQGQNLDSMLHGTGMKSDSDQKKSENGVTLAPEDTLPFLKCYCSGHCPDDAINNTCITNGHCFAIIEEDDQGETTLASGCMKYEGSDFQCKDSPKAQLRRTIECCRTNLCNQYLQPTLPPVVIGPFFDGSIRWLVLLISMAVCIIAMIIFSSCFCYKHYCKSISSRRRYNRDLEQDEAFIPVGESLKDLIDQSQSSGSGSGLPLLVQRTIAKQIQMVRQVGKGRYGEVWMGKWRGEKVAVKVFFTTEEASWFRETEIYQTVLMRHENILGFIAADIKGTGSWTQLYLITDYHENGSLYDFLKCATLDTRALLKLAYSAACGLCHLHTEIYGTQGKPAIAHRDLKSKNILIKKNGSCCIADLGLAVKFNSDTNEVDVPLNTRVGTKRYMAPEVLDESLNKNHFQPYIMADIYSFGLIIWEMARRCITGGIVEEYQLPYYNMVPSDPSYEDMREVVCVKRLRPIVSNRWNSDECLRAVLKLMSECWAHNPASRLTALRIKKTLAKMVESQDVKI

As to `COc1cc2nccc(Oc3ccc(NC(=O)NC4CC4)c(Cl)c3)c2cc1C(N)=O` [LENVATINIB], the Kd is > 30 µM (inactive) in assay [1]; 0.578 µM (active) in assay [2]; 3.85 µM (active) in assay [3]; > 30 µM (inactive) in assay [4]; > 30 µM (inactive) in assay [5]; > 30 µM (inactive) in assay [6].

As for `CO[C@H]1C[C@@H]2CC[C@@H](C)[C@@](O)(O2)C(=O)C(=O)N2CCCC[C@H]2C(=O)O[C@H]([C@H](C)C[C@@H]2CC[C@@H](OCCO)[C@H](OC)C2)CC(=O)[C@H](C)/C=C(\C)[C@@H](O)[C@@H](OC)C(=O)[C@H](C)C[C@H](C)/C=C/C=C/C=C/1C` [EVEROLIMUS], the Kd in assay [1], in assay [2], in assay [7], in assay [3], in assay [4] and in assay [5] was > 30 µM (inactive) throughout. Besides, the Kd in assay [6] is > 30 µM (inactive).

Regarding `Cc1ccc(NC(=O)c2ccc(CN3CC[C@H](N(C)C)C3)c(C(F)(F)F)c2)cc1Nc1nccc(-c2cncnc2)n1` [BAFETINIB], the Kd in assay [1], in assay [2], in assay [7], in assay [3], in assay [4] and in assay [5] was > 30 µM (inactive) throughout. For the same compound, the Kd in assay [6] was > 30 µM (inactive).

For `CC(C)Nc1cc(-c2c[nH]c(C(=O)N[C@H](CO)c3cccc(Cl)c3)c2)c(Cl)cn1` [ULIXERTINIB], the Kd in assay [1], in assay [2], in assay [7], in assay [3], in assay [4] and in assay [5] was > 30 µM (inactive) throughout. For the same compound, the Kd in assay [6] was > 30 µM (inactive).

`O=C(Nc1cccc(Cl)c1)Nc1ncc(CCNc2ncnc3ccsc23)s1` [SNS-314]: the Kd in assay [1], in assay [7], in assay [4] and in assay [5] was > 30 µM (inactive) throughout.

`O=C1NC(=O)/C(=C/c2ccc3nccc(-c4ccncc4)c3c2)S1` [GSK-1059615]: the Kd is > 30 µM (inactive) in assay [1]; > 30 µM (inactive) in assay [2]; > 30 µM (inactive) in assay [7]; 4.32 µM (active) in assay [3]; > 30 µM (inactive) in assay [5]; > 30 µM (inactive) in assay [6].

In the case of `Cc1cn(-c2cc(NC(=O)c3ccc(C)c(Nc4nccc(-c5cccnc5)n4)c3)cc(C(F)(F)F)c2)cn1` [NILOTINIB], the Kd in assay [1] and in assay [4] was > 30 µM (inactive) each time.

For `COc1cc(CCc2cc(NC(=O)c3ccc(N4C[C@@H](C)N[C@@H](C)C4)cc3)n[nH]2)cc(OC)c1` [AZD-4547], the Kd in assay [1] is > 30 µM (inactive); in assay [2], 0.11 µM (active); in assay [7], > 30 µM (inactive); in assay [3], > 30 µM (inactive); in assay [4], > 30 µM (inactive); in assay [5], > 30 µM (inactive). In addition, the Kd in assay [6] is > 30 µM (inactive).

Take `C[C@@H]1CN(Cc2ccc(F)cc2)[C@@H](C)CN1C(=O)c1cc2c(C(=O)C(=O)N(C)C)cn(C)c2cc1Cl` [TALMAPIMOD]: the Kd in assay [1], in assay [2], in assay [7], in assay [3], in assay [4] and in assay [5] was > 30 µM (inactive) each time. Besides, the Kd in assay [6] is > 30 µM (inactive).

In the case of `Nc1nc(N)c2nc(-c3cccc(O)c3)c(-c3cccc(O)c3)nc2n1` [TG100-115], the Kd in assay [1] and in assay [4] was > 30 µM (inactive) in each case.

Take `CN1CCN(c2ccc3nc(-c4c(N)c5c(F)cccc5[nH]c4=O)[nH]c3c2)CC1` [DOVITINIB]: the Kd in assay [1] and in assay [4] was > 30 µM (inactive) throughout.

With `Cc1cc(Nc2cc(N3CCN(C)CC3)nc(/C=C/c3ccccc3)n2)n[nH]1` [ENMD-2076], the Kd in assay [1], in assay [7], in assay [3], in assay [4] and in assay [5] was > 30 µM (inactive) throughout.

Take `Cc1nc(N)sc1-c1ccnc(Nc2ccc(N3CCOCC3)cc2)n1` [CYC-116]: the Kd in assay [1], in assay [7] and in assay [4] was > 30 µM (inactive) each time.

As for `C[C@@H](Nc1cc(F)cc(F)c1)c1cc(C(=O)N(C)C)cc2c(=O)cc(N3CCOCC3)oc12` [AZD-8186], the Kd in assay [1], in assay [2], in assay [7], in assay [3], in assay [5] and in assay [6] was > 30 µM (inactive) each time.

On to `CCn1c(-c2nonc2N)nc2c(C#CC(C)(C)O)ncc(OC[C@H]3CCCNC3)c21` [GSK-690693], for which the Kd in assay [1] and in assay [4] was > 30 µM (inactive) each time.

For the compound `CCc1cnn2c(NCc3ccc[n+]([O-])c3)cc(N3CCCC[C@H]3CCO)nc12` [DINACICLIB], the Kd in assay [1], in assay [7], in assay [3], in assay [4], in assay [5] and in assay [6] was > 30 µM (inactive) each time.

On to `CCCS(=O)(=O)Nc1ccc(F)c(C(=O)c2c[nH]c3ncc(-c4ccc(Cl)cc4)cc23)c1F` [VEMURAFENIB], for which the Kd in assay [1], in assay [7], in assay [3], in assay [4], in assay [5] and in assay [6] was > 30 µM (inactive) each time.

On to `OCCn1cc(-c2cnc3nnn(Cc4ccc5ncccc5c4)c3n2)cn1` [PF-04217903], for which the Kd in assay [1], in assay [7], in assay [3], in assay [4], in assay [5] and in assay [6] was > 30 µM (inactive) throughout.

The values above are taken from ChEMBL document CHEMBL3991601, “The target landscape of clinical kinase drugs” (Science, 2017).
